The structures appear in SMILES notation.

In the first test the target is T1, HDAC6 enzyme (Homo sapiens, UniProt Q9UBN7).
T1 construct: prepared by transducing full length HDAC6 gene into Sf-9 insect cells; GST; purchased SignalChem; host or cells: Sf-9 insect cells
T1 sequence (Q9UBN7 1-1215): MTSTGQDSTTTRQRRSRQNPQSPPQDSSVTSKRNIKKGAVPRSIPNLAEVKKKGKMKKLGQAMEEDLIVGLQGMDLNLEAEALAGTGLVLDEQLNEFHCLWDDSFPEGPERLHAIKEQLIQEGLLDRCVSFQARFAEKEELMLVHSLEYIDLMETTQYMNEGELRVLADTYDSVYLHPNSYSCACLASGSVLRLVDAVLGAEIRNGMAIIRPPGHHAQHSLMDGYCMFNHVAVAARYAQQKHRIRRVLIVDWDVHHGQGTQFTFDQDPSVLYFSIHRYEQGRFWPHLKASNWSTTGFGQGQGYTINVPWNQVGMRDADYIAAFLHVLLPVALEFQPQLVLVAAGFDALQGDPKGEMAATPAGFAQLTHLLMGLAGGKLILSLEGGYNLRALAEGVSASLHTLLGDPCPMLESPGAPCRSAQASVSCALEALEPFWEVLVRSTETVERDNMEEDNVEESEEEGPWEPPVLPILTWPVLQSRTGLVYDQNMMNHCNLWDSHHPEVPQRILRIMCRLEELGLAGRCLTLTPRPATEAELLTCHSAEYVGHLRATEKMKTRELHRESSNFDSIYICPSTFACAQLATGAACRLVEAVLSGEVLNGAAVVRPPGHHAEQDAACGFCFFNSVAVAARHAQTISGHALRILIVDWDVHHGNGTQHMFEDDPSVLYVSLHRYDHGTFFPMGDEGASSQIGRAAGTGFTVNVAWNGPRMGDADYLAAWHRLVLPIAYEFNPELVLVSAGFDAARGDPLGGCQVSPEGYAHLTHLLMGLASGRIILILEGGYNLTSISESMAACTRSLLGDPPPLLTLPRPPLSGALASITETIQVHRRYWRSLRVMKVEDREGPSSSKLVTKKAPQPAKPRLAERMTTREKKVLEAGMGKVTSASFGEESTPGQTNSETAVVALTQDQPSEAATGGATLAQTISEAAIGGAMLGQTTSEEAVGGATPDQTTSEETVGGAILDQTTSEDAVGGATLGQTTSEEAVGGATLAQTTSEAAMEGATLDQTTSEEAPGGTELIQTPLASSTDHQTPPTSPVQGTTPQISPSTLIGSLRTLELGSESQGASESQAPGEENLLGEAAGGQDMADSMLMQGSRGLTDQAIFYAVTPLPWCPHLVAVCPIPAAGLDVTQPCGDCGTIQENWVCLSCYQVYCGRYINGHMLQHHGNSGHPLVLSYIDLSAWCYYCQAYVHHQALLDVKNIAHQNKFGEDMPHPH
The test can be described thus: HDAC6 enzyme inhibitory assay (HDAC-Glo I/II Assay kit, luminescence). Type of test: biochemical. As to conditions: 10 μM test compound; wells without enzyme = 100% inhibition; 10 µM. A digest of the protocol:
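Full-length human HDAC6, GST-purified from Sf-9 cells, was preincubated with compound for 60 min at room temperature in Tris-HCl pH 7.5 buffer with glutathione and Tween-20. Substrate-developer was then added, and luminescence was read after 20 min at room temperature. Inhibition was expressed relative to no-enzyme wells, taken as 100% inhibition.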
As for `CN1C(=O)c2cc(-c3nnc(C(F)F)o3)ccc2CC1(C)c1ccc(F)cc1` (single isomer, unassigned; isomer 2) [Example 24b, 7-[5-(difluoromethyl)-1,3,4-oxadiazol-2-yl]-3-(4-fluorophenyl)-2,3-dimethyl-3,4-dihydroisoquinolin-1(2H)-one (optical isomer 2)], the “HDAC6 inhibitory rate (%) (10 μM)” value is 99%.

For `CN1C(=O)c2cc(-c3nnc(C(F)F)o3)cnc2CC1(C)c1ccc(F)cc1` (single isomer, unassigned; isomer 1) [Example 27b, 3-[5-(difluoromethyl)-1,3,4-oxadiazol-2-yl]-7-(4-fluorophenyl)-6,7-dimethyl-7,8-dihydro-1,6-naphthyridin-5(6H)-one (optical isomer 1)], the “HDAC6 inhibitory rate (%) (10 μM)” value was 56%.

Still in this test, the particulars now being: 10 μM test compound; wells without enzyme = 100% inhibition; read-out: HDAC6 inhibitory rate (%) (10 μM).
Consider `O=C(OC1CCOCC1)N(Cc1ccc(F)cc1)N1Cc2ccc(-c3nnc(C(F)F)o3)cc2C1=O` [Example 23c, oxan-4-yl {6-[5-(difluoromethyl)-1,3,4-oxadiazol-2-yl]-1-oxo-1,3-dihydro-2H-isoindol-2-yl}[(4-fluorophenyl)methyl]carbamate], for which the inhibition at 10 µM worked out at 101%.

Regarding `O=C1c2cc(-c3nnc(C(F)F)o3)ccc2CN1NCc1ccc(F)cn1` [Example 15c, 6-[5-(difluoromethyl)-1,3,4-oxadiazol-2-yl]-2-{[(5-fluoropyridin-2-yl)methyl]amino}-2,3-dihydro-1H-isoindol-1-one], the inhibition at 10 µM was 99%.

Regarding `O=C1c2cc(-c3nnc(C(F)F)o3)ccc2CN1NC1CCC(F)(F)CC1` [Example 35c, 2-[(4,4-difluorocyclohexyl)amino]-6-[5-(difluoromethyl)-1,3,4-oxadiazol-2-yl]-2,3-dihydro-1H-isoindol-1-one], the inhibition at 10 µM was determined as 93%.

For `CN(Cc1cc(O)ccc1F)N1Cc2ccc(-c3nnc(C(F)F)o3)cc2C1=O` [Example 49c, 6-[5-(difluoromethyl)-1,3,4-oxadiazol-2-yl]-2-{[(2-fluoro-5-hydroxyphenyl)methyl](methyl)amino}-2,3-dihydro-1H-isoindol-1-one], the inhibition at 10 µM was determined as 100%.

As for `Fc1cc(-c2nnc(C(F)F)o2)cc(-c2nccn2Cc2cccnn2)c1` [Example 26a], the inhibition at 10 µM was 96%.

On to `CCN(Cc1ccccc1)N1Cc2ccc(-c3nnc(C(F)F)o3)cc2C1=O` [Example 8c, 2-[benzyl (ethyl)amino]-6-[5-(difluoromethyl)-1,3,4-oxadiazol-2-yl]-2,3-dihydro-1H-isoindol-1-one], for which the inhibition at 10 µM was found to be 95%.

`Fc1cc(-c2nnc(C(F)F)o2)cc(-c2nccn2CC2CCCOC2)c1` (stereo not shown) [Example 29a, 2-(difluoromethyl)-5-(3-fluoro-5-{1-[(oxan-3-yl)methyl]-1H-imidazol-2-yl}phenyl)-1,3,4-oxadiazole]: the inhibition at 10 µM turned out to be 99%.

For the molecule `O=C1c2cc(-c3nnc(C(F)F)o3)ccc2CN1Nc1ccc(F)c(F)c1` [Example 36c, 2-(3,4-difluoroanilino)-6-[5-(difluoromethyl)-1,3,4-oxadiazol-2-yl]-2,3-dihydro-1H-isoindol-1-one], the inhibition at 10 µM was found to be 98%.

In the case of `FC(F)c1nnc(-c2cncc(-c3nccn3Cc3ccccc3)c2)o1` [Example 37a, 3-(1-benzyl-1H-imidazol-2-yl)-5-[5-(difluoromethyl)-1,3,4-oxadiazol-2-yl]pyridine], the inhibition at 10 µM turned out to be 99%.

Regarding `CN1C(=O)c2cc(-c3nnc(C(F)F)o3)ccc2OC1(C)c1cccnc1` (stereo not shown) [Example 43b, 6-[5-(difluoromethyl)-1,3,4-oxadiazol-2-yl]-2,3-dimethyl-2-(pyridin-3-yl)-2,3-dihydro-4H-1,3-benzoxazin-4-one], the inhibition at 10 µM came to 100%.

Turning to `FC(F)c1nnc(-c2cccc(-c3nccn3Cc3ccccc3)c2)o1` [Example 70a, 2-[3-(1-benzyl-1H-imidazol-2-yl)phenyl]-5-(difluoromethyl)-1,3,4-oxadiazole], the inhibition at 10 µM was determined as 98%.

Take `Fc1cc(-c2nnc(C(F)F)o2)cc(-c2nccn2Cc2ccccc2Cl)c1` [Example 20a, 2-(3-{1-[(2-chlorophenyl)methyl]-1H-imidazol-2-yl]-5-fluorophenyl)-5-(difluoromethyl)-1,3,4-oxadiazole]: the inhibition at 10 µM amounted to 97%.

With `O=C1c2cc(-c3nnc(C(F)F)o3)ccc2CN1Nc1c(F)c(F)c(F)c(F)c1F` [Example 32c, 6-[5-(difluoromethyl)-1,3,4-oxadiazol-2-yl]-2-(pentafluoroanilino)-2,3-dihydro-1H-isoindol-1-one], the inhibition at 10 µM worked out at 95%.

Consider `Fc1cccc(Cc2ncnn2-c2cc(-c3nnc(C(F)F)o3)ccn2)c1` [Example 89a, 4-[5-(difluoromethyl)-1,3,4-oxadiazol-2-yl]-2-{5-[(3-fluorophenyl)methyl]-1H-1,2,4-triazol-1-yl}pyridine], for which the inhibition at 10 µM turned out to be 97%.

Consider `CN(Cc1ccccc1Oc1cnccn1)N1Cc2ccc(-c3nnc(C(F)F)o3)cc2C1=O` [Example 59c, 6-[5-(difluoromethyl)-1,3,4-oxadiazol-2-yl]-2-[methyl({2-[(pyrazin-2-yl)oxy]phenyl}methyl)amino]-2,3-dihydro-1H-isoindol-1-one], for which the inhibition at 10 µM was determined as 101%.

With `Fc1cc(-c2nnc(C(F)F)o2)cc(-c2ncccc2OCc2ccccn2)c1` [Example 11a, 2-{3-[5-(difluoromethyl)-1,3,4-oxadiazol-2-yl]-5-fluorophenyl}-3-[(pyridin-2-yl)methoxy]pyridine], the inhibition at 10 µM was 94%.

As for `CN1C(=O)c2cc(-c3nnc(C(F)F)o3)ccc2OC1(C)c1ccc(F)c(F)c1` (stereo not shown) [Example 32b, 6-[5-(difluoromethyl)-1,3,4-oxadiazol-2-yl]-2-(3,4-difluorophenyl)-2,3-dimethyl-2,3-dihydro-4H-1,3-benzoxazin-4-one], the inhibition at 10 µM came to 100%.

Consider `CN(C(=O)OC(C)(C)C)N1Cc2ccc(-c3nnc(C(F)F)o3)cc2C1=O` [Example 38c, tert-butyl {6-[5-(difluoromethyl)-1,3,4-oxadiazol-2-yl]-1-oxo-1,3-dihydro-2H-isoindol-2-yl}methylcarbamate], for which the inhibition at 10 µM was 97%.

Turning to `CN(Cc1cccc2cnccc12)N1Cc2ccc(-c3nnc(C(F)F)o3)cc2C1=O` [Example 47c, 6-[5-(difluoromethyl)-1,3,4-oxadiazol-2-yl]-2-{[(isoquinolin-5-yl)methyl](methyl)amino}-2,3-dihydro-1H-isoindol-1-one], the inhibition at 10 µM came out at 100%.

`CC1(COc2cccnc2-c2cc(F)cc(-c3nnc(C(F)F)o3)c2)COC1` [Example 18a]: the inhibition at 10 µM worked out at 98%.

In the case of `CN(Cc1ccc(F)cc1)N1Cc2ccc(-c3nnc(C(F)F)o3)cc2C1=O` [Example 28c, 6-[5-(difluoromethyl)-1,3,4-oxadiazol-2-yl]-2-{[(4-fluorophenyl)methyl](methyl)amino}-2,3-dihydro-1H-isoindol-1-one], the inhibition at 10 µM is 99%.

For the molecule `CN(Cc1ccc(F)cc1)N1Cc2ncc(-c3nnc(C(F)F)o3)cc2C1=O` [Example 69c, 3-[5-(difluoromethyl)-1,3,4-oxadiazol-2-yl]-6-{[(4-fluorophenyl)methyl](methyl)amino}-6,7-dihydro-5H-pyrrolo[3,4-b]pyridin-5-one], the inhibition at 10 µM was determined as 100%.

On to `O=C1c2cc(-c3nnc(C(F)F)o3)ccc2CN1NC1CCOCC1` [Example 34c, 6-[5-(difluoromethyl)-1,3,4-oxadiazol-2-yl]-2-[(oxan-4-yl)amino]-2,3-dihydro-1H-isoindol-1-one], for which the inhibition at 10 µM turned out to be 92%.

The values above are taken from patent publication US12084436B2, “Heterocyclic compound” (Takeda Pharmaceutical Company Limited, priority 2019, dated 2024).
